# Test: comparative dissolution test in deionized water
# Details: for time to complete dissolution: 200 mg suspended in 25 ml deionized water, 20° C., magnetic stirring at 25 rpm, monosodium salt
SMILES,time to complete dissolution,"water solubility with respect to crystalline forms (amorphous form, preferably lyophilized, vs commercially available or otherwise described crystalline forms)"
"O=P([O-])(O)C(O)(Cc1cccnc1)P(=O)(O)O.[Na+] [amorphous sodium risedronate, 3-pyridil-1-hydroxyethyliden-1,1-biphosphonic acid monosodium salt]",≤ 2 ′,improved water solubility
"O=P([O-])(O)C(O)(Cc1cccnc1)P(=O)(O)O.[Na+] [sodium risedronate hemipentahydrate, 3-pyridil-1-hydroxyethyliden-1,1-biphosphonic acid monosodium salt]",> 30 ′,

# From patent publication US7858634B2, “Amorphous 3-pyridil-1-hydroxyethyliden-1,1-biphosphonic acid monosodium salt and process for the preparation thereof” (Chemi SpA, priority 2004, dated 2010)
